Experimental findings from ChEMBL document CHEMBL4190291, “Imidazo[1,2-a]pyrazine, Imidazo[1,5-a]quinoxaline and Pyrazolo[1,5-a]quinoxaline derivatives as IKK1 and IKK2 inhibitors” (2017) are described below.

The term inhibition denotes the relative decrease from the control value, in per cent.

Test [1] concerns the target T1, Inhibitor of nuclear factor kappa-B kinase subunit beta (Homo sapiens) (UniProt O14920).
T1 sequence (whole entry): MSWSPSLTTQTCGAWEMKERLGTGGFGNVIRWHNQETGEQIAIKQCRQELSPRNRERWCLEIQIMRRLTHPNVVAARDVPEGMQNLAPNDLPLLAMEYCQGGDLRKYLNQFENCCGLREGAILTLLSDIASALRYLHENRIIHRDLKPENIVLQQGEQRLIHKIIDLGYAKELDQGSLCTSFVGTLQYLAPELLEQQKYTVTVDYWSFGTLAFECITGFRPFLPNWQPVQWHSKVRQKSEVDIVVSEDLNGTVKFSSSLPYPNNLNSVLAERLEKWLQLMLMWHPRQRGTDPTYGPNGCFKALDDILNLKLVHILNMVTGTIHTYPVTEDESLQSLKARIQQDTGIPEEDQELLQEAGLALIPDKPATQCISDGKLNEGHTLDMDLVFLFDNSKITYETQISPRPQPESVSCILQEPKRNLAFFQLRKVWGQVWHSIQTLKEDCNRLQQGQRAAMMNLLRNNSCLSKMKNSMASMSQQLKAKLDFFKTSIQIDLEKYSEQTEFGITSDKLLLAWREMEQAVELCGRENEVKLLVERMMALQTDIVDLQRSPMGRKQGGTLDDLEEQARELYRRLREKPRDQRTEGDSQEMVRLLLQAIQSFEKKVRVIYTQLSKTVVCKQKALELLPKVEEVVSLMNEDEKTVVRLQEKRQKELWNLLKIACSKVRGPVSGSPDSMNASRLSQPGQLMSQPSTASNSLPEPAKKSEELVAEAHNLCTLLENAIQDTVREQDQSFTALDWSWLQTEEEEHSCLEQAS
The experiment in a line: Inhibition of full length human GST-tagged IKK2 expressed in baculovirus expression system at 10 uM by Z'-LYTE assay.

In test [2] the target is T2, Inhibitor of nuclear factor kappa-B kinase subunit alpha (Homo sapiens) (UniProt O15111).
T2 sequence (whole entry): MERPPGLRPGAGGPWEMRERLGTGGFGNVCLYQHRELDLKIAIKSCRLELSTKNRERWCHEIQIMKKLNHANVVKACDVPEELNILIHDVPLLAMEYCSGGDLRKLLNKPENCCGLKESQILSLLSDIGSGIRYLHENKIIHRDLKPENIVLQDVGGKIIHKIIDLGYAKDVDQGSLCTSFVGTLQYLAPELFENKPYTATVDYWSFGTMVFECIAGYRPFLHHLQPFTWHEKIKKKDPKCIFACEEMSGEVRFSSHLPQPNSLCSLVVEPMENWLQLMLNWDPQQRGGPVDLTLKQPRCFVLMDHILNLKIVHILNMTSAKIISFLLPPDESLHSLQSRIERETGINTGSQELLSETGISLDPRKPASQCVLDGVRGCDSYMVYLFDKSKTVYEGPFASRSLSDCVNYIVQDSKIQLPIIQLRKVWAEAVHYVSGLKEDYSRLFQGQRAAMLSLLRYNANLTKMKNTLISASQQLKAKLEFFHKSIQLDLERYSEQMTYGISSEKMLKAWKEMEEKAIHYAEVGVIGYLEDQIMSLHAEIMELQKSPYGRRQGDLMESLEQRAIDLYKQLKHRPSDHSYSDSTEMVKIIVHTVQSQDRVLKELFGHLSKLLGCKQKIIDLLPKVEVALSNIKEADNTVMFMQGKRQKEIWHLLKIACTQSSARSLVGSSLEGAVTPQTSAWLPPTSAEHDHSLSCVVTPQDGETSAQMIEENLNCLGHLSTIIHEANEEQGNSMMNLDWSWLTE
Description: Inhibition of full length human His-tagged IKK1 expressed in baculovirus expression system at 10 uM by Z'-LYTE assay.

Test [3] concerns THP-1. The experiment in a line: Anti-inflammatory activity in human THP1 cells assessed as inhibition of LPS/INFgamma-induced TNFalpha production at 10 uM relative to control. Type of test: functional.

On to `CNc1nc2ccccc2n2nccc12`, for which the results for the inhibition in test [1] and in test [2] were -2% and 5%, respectively.

With `CNc1nc2ccccc2n2c(Br)ncc12`, the inhibition in test [1] was found to be 16%; in test [2] it was 0%.

For the molecule `CNc1nccn2c(Br)cnc12`, the inhibition in test [1] came out at 6%; in test [2], 5%.

With `Nc1nccn2c(-c3ccc(O)c(O)c3)cnc12`, the results for the inhibition in test [1] and in test [2] were -8% and 20%, respectively.

With `CNc1nc2ccccc2n2cncc12`, the inhibition in test [1] was determined as 1%; in test [2], 3%.

`CN(C)c1nc2ccccc2n2nccc12`: the inhibition in test [1] was 17%; in test [2], -10%.

`Cc1ccc2nc(NCCN)c3ncc(C)n3c2c1`: the inhibition in test [1] is 64%; in test [2], 8%.

As for `Cc1ccc2nc(N(C)C)c3ccnn3c2c1`, the inhibition in test [1] was 1%.

For `COc1ccc(-c2cnc3c(N)nccn23)cc1OC`, the inhibition in test [1] is -4%; in test [2], -2%.

As for `CNc1nc2ccc(C)cc2n2nccc12`, the values for the inhibition in test [1] and in test [2] were 19% and -9%, respectively.

As for `CNc1nccn2c(-c3ccc(OC)c(OC)c3)cnc12`, the inhibition in test [1] was -1%; in test [2], -9%.

As for `CNc1nc2cc(C)ccc2n2nccc12`, the inhibition was 4% in test [1] and -4% in test [2].

Consider `CNc1nc2ccccc2n2ncc(Br)c12`, for which the inhibition in test [1] amounted to 1%; in test [2], 0%.

Consider `Cc1ccc2c(c1)nc(N(C)C)c1ccnn12`, for which the inhibition in test [1] was 4%; in test [2], -7%.

Regarding `CNc1nc2ccc(C)cc2n2c(C)cnc12`, the inhibition at 10 µM in test [3] is 45%.

Regarding `Nc1nccn2c(Br)cnc12`, the results for the inhibition in test [1] and in test [2] were 10% and 7%, respectively.

Take `CNc1nccn2c(-c3ccc(O)c(O)c3)cnc12`: the inhibition in test [1] turned out to be 18%; in test [2], 5%.

For `CNc1nc2ccc(C)cc2n2ncc(Br)c12`, the inhibition was -3% in test [1] and -10% in test [2].

For `CNc1nccn2c(C)cnc12`, the results for the inhibition in test [1] and in test [2] were -4% and -1%, respectively.

In the case of `CNc1nc2cc(C)ccc2n2ncc(Br)c12`, the inhibition in test [1] was 7%; in test [2] it was -6%.

On to `CNc1nc2ccccc2n2c(C)cnc12`, for which the figures for the inhibition in test [1] and in test [2] were 5% and -3%, respectively.

`CNc1nc2ccc(C)cc2n2c(Br)cnc12`: the inhibition at 10 µM in test [3] was determined as 40%.

For the molecule `CNc1nc2ccccc2n2c(Br)nc(Br)c12`, the inhibition in test [2] was -1%.

`CNc1nc2ccccc2n2cnc(Br)c12`: the results for the inhibition in test [1] and in test [2] were 10% and -5%, respectively.
